Laboratory results published in paper PMC10066365, “Nemacol is a small molecule inhibitor of C. elegans vesicular acetylcholine transporter with anthelmintic potential” (Nature Communications, 2023).
Where “and” joins values, the source holds several entries; their conditions need not be identical. Equal entries are not always repeated.

Test system: C. elegans
Assay: C. elegans motor phenotype scoring on solid media (Punc/jerky-unc, coiled, paralyzed), wild-type young adults
Type: in vivo, Caenorhabditis elegans
Conditions: for atypical locomotion (number of animals) / coiled (number of animals) / no phene (number of animals) / paralyzed (number of animals): young adults, 20 animals per trial, single replicate counts; for Fraction Coiled / Fraction Jerky-Unc / Fraction No Phenotype / Fraction Parayzed / Fraction Coiled, Averages of 3 biological repeats / Fraction Jerky-Unc, Averages of 3 biological repeats / Fraction No Phenotype, Averages of 3 biological repeats / Fraction Parayzed, Averages of 3 biological repeats / C1 (loose coil) worm count / C2 (tight coil) worm count / J (jerky-unc) worm count / NP (no phene) worm count / P (paralyzed) worm count: 60 min; for rep 1 atypical locomotion / rep 1 coiled / rep 1 no phene / rep 1 paralyzed: N2, count of 20 animals
[1] = 15 µM, N2 adult worms, Averages of 3 biological repeats
[2] = 15 µM, N2 adult worms, Bio Rep 1
[3] = 15 µM, N2 adult worms, Bio Rep 3
[4] = 15 µM, N2 adult worms, Bio rep 2
[5] = 30 µM, N2 adult worms, Averages of 3 biological repeats
[6] = 30 µM, N2 adult worms, Bio Rep 1
[7] = 30 µM, N2 adult worms, Bio Rep 3
[8] = 30 µM, N2 adult worms, Bio rep 2
[9] = 60 µM, N2 adult worms, Averages of 3 biological repeats
[10] = 60 µM, N2 adult worms, Bio Rep 1
[11] = 60 µM, N2 adult worms, Bio Rep 3
[12] = 60 µM, N2 adult worms, Bio rep 2
[13] = N2, 15 µM, adult worms, average of 3 biological repeats
[14] = N2, 30 µM, adult worms, average of 3 biological repeats
[15] = N2, 60 µM, adult worms, average of 3 biological repeats
[16] = N2 series 1 (run with e245, md414), 15 µM
[17] = N2 series 1 (run with e245, md414), 15 µM, single Bio Rep
[18] = N2 series 1 (run with e245, md414), 30 µM
[19] = N2 series 1 (run with e245, md414), 30 µM, single Bio Rep
[20] = N2 series 1 (run with e245, md414), 60 µM
[21] = N2 series 1 (run with e245, md414), 60 µM, single Bio Rep
[22] = N2 series 2 (run with e327), 15 µM
[23] = N2 series 2 (run with e327), 15 µM, single Bio Rep
[24] = N2 series 2 (run with e327), 30 µM
[25] = N2 series 2 (run with e327), 30 µM, single Bio Rep
[26] = N2 series 2 (run with e327), 60 µM
[27] = N2 series 2 (run with e327), 60 µM, single Bio Rep

Structure (SMILES): O=[N+]([O-])c1ccc(N2CCN(CC3CCCCC3)CC2)cc1 [Nemacol-1]
- atypical locomotion (number of animals) (3.75uM, one hour): 9 and 12 and 2 and 3 and 11
- coiled (number of animals) (3.75uM, one hour): 0 and 2 and 1
- no phene (number of animals) (3.75uM, one hour): 11 and 8 and 16 and 17 and 9
- paralyzed (number of animals) (3.75uM, one hour): 0
- Fraction Coiled [1]: 0.15
- Fraction Jerky-Unc [1]: 0.69
- Fraction No Phenotype [1]: 0.15
- Fraction Parayzed [1]: 0.0185
- Fraction Coiled [2]: 0.17
- Fraction Jerky-Unc [2]: 0.6111
- Fraction No Phenotype [2]: 0.22
- Fraction Parayzed [2]: 0
- Fraction Coiled [3]: 0.11
- Fraction Jerky-Unc [3]: 0.8333
- Fraction No Phenotype [3]: 0.0556
- Fraction Parayzed [3]: 0
- Fraction Coiled [4]: 0.17
- Fraction Jerky-Unc [4]: 0.6111
- Fraction No Phenotype [4]: 0.17
- Fraction Parayzed [4]: 0.05556
- any phene, mean % fraction of young adults exhibiting any phenotype (coiled, jerky-Unc or paralyzed) (15uM, one hour, mean of three biological replicates): 91.0317%
- atypical locomotion (number of animals) (15uM, one hour): 6 and 4 and 7 and 5 and 12 and 16
- coiled (number of animals) (15uM, one hour): 5 and 8 and 13 and 4
- no phene (number of animals) (15uM, one hour): 0 and 5 and 2 and 4
- paralyzed (number of animals) (15uM, one hour): 9 and 11 and 1 and 0
- Fraction Coiled [5]: 0.46
- Fraction Jerky-Unc [5]: 0.31
- Fraction No Phenotype [5]: 0.00
- Fraction Parayzed [5]: 0.23
- Fraction Coiled [6]: 0.61
- Fraction Jerky-Unc [6]: 0.2222
- Fraction No Phenotype [6]: 0.00
- Fraction Parayzed [6]: 0.1667
- Fraction Coiled [7]: 0.41
- Fraction Jerky-Unc [7]: 0.3529
- Fraction No Phenotype [7]: 0.00
- Fraction Parayzed [7]: 0.2353
- Fraction Coiled [8]: 0.35
- Fraction Jerky-Unc [8]: 0.3529
- Fraction No Phenotype [8]: 0.00
- Fraction Parayzed [8]: 0.2941
- Fraction Coiled [9]: 0.60
- Fraction Jerky-Unc [9]: 0.10
- Fraction No Phenotype [9]: 0.00
- Fraction Parayzed [9]: 0.29
- Fraction Coiled [10]: 0.69
- Fraction Jerky-Unc [10]: 0.125
- Fraction No Phenotype [10]: 0.00
- Fraction Parayzed [10]: 0.1875
- Fraction Coiled [11]: 0.56
- Fraction Jerky-Unc [11]: 0.1111
- Fraction No Phenotype [11]: 0.00
- Fraction Parayzed [11]: 0.3333
- Fraction Coiled [12]: 0.57
- Fraction Jerky-Unc [12]: 0.07143
- Fraction No Phenotype [12]: 0.00
- Fraction Parayzed [12]: 0.3571
- atypical locomotion (number of animals) (60uM, one hour): 2 and 1 and 4
- coiled (number of animals) (60uM, one hour): 7 and 11 and 17 and 19 and 12 and 8
- no phene (number of animals) (60uM, one hour): 0
- paralyzed (number of animals) (60uM, one hour): 11 and 7 and 1 and 0 and 6 and 8
- motor defects after 24 h on compound (24 h): no longer have obvious motor defects
- EC50 (Caenorhabditis elegans, 1 h, read-out: C. elegans - motor disruption EC50): 7.1 µM
- Fraction Coiled [13]: 0.15
- Fraction Jerky-Unc [13]: 0.69
- Fraction No Phenotype [13]: 0.15
- Fraction Parayzed [13]: 0.0185
- Fraction Coiled [14]: 0.46
- Fraction Jerky-Unc [14]: 0.31
- Fraction No Phenotype [14]: 0.00
- Fraction Parayzed [14]: 0.23
- Fraction Coiled [15]: 0.60
- Fraction Jerky-Unc [15]: 0.10
- Fraction No Phenotype [15]: 0.00
- Fraction Parayzed [15]: 0.29
- rep 1 atypical locomotion (conc 3.75): 3
- rep 1 coiled (conc 3.75): 2
- rep 1 no phene (conc 3.75): 15
- rep 1 paralyzed (conc 3.75): 0
- rep 1 atypical locomotion (conc 15): 3
- rep 1 coiled (conc 15): 4
- rep 1 no phene (conc 15): 7
- rep 1 paralyzed (conc 15): 6
- rep 1 atypical locomotion (conc 60): 2
- rep 1 coiled (conc 60): 3
- rep 1 no phene (conc 60): 0
- rep 1 paralyzed (conc 60): 15
- Fraction Coiled, Averages of 3 biological repeats [16]: 0.26
- Fraction Jerky-Unc, Averages of 3 biological repeats [16]: 0.67
- Fraction No Phenotype, Averages of 3 biological repeats [16]: 0.037
- Fraction Parayzed, Averages of 3 biological repeats [16]: 0.037
- C1 (loose coil) worm count [17]: 1 and 2
- C2 (tight coil) worm count [17]: 3 and 4
- Fraction Coiled [17]: 0.28 and 0.22
- Fraction Jerky-Unc [17]: 0.6111 and 0.7222 and 0.6667
- J (jerky-unc) worm count [17]: 13 and 11 and 12
- Fraction Coiled, Averages of 3 biological repeats [18]: 0.59
- Fraction Jerky-Unc, Averages of 3 biological repeats [18]: 0.28
- Fraction No Phenotype, Averages of 3 biological repeats [18]: 0.00
- Fraction Parayzed, Averages of 3 biological repeats [18]: 0.13
- C1 (loose coil) worm count [19]: 5
- C2 (tight coil) worm count [19]: 5 and 7
- Fraction Coiled [19]: 0.56 and 0.67
- Fraction Jerky-Unc [19]: 0.1667 and 0.3333
- Fraction No Phenotype [19]: 0.00
- J (jerky-unc) worm count [19]: 6 and 3
- NP (no phene) worm count [19]: 0
- Fraction Coiled, Averages of 3 biological repeats [20]: 0.64
- Fraction Jerky-Unc, Averages of 3 biological repeats [20]: 0.11
- Fraction No Phenotype, Averages of 3 biological repeats [20]: 0.00
- Fraction Parayzed, Averages of 3 biological repeats [20]: 0.25
- C1 (loose coil) worm count [21]: 3 and 4
- C2 (tight coil) worm count [21]: 6 and 8
- Fraction Coiled [21]: 0.67 and 0.60
- Fraction No Phenotype [21]: 0.00
- NP (no phene) worm count [21]: 0
- Fraction Coiled, Averages of 3 biological repeats [22]: 0.20
- Fraction Jerky-Unc, Averages of 3 biological repeats [22]: 0.69
- Fraction No Phenotype, Averages of 3 biological repeats [22]: 0.11
- Fraction Parayzed, Averages of 3 biological repeats [22]: 0.00
- C2 (tight coil) worm count [23]: 3 and 2
- Fraction Jerky-Unc [23]: 0.7778 and 0.6667 and 0.6316
- Fraction No Phenotype [23]: 0.11
- Fraction Parayzed [23]: 0
- J (jerky-unc) worm count [23]: 12 and 14
- NP (no phene) worm count [23]: 2
- P (paralyzed) worm count [23]: 0
- Fraction Coiled, Averages of 3 biological repeats [24]: 0.49
- Fraction Jerky-Unc, Averages of 3 biological repeats [24]: 0.36
- Fraction No Phenotype, Averages of 3 biological repeats [24]: 0.00
- Fraction Parayzed, Averages of 3 biological repeats [24]: 0.15
- C2 (tight coil) worm count [25]: 4 and 7 and 6
- Fraction No Phenotype [25]: 0.00
- NP (no phene) worm count [25]: 0
- Fraction Coiled, Averages of 3 biological repeats [26]: 0.57
- Fraction Jerky-Unc, Averages of 3 biological repeats [26]: 0.11
- Fraction No Phenotype, Averages of 3 biological repeats [26]: 0.00
- Fraction Parayzed, Averages of 3 biological repeats [26]: 0.32
- C1 (loose coil) worm count [27]: 3 and 4
- Fraction Coiled [27]: 0.58 and 0.41 and 0.72
- Fraction No Phenotype [27]: 0.00
- Fraction Parayzed [27]: 0.3158 and 0.3529 and 0.2778
- NP (no phene) worm count [27]: 0
- P (paralyzed) worm count [27]: 6 and 5
- fold difference in C. elegans EC50, Vesamicol vs Nemacol-1 (Vesamicol EC50 higher, Nemacol-1 more potent): 5.4 fold
